{"source": "patent US8952024B2", "about": "“Herbicidal pyrimidone derivatives” (E I du Pont de Nemours and Company, priority 2009, dated 2015)", "format_in_all_cases": "in vivo", "key": {"rice (Oryza sativa)": {"test_system": "rice (Oryza sativa)", "test": "Test B flooded paddy test", "details": "for Plant response rating, Rice: Flood (flooded paddy test), 13 to 15 days; for Rice plant response rating: Flood, 31 g ai/ha, scale 0 to 100 (0 no effect, 100 complete control)", "outline": "(§1)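 Each compound is added to standing floodwater (3 cm above soil, maintained) in pots of 2-leaf-stage plants; greenhouse exposure lasts 13–15 d before visual comparison with controls on a 0–100 control scale.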"}, "[1]": {"test_system": "ducksalad (Heteranthera limosa)", "test": "Test B flooded paddy test", "details": "for Plant response rating, Ducksalad: Flood (flooded paddy test), 13 to 15 days; for Ducksalad plant response rating: Flood, 31 g ai/ha, scale 0 to 100 (0 no effect, 100 complete control)", "outline": "as §1"}, "[2]": {"test_system": "barnyardgrass (Echinochloa crus-galli)", "test": "Test B flooded paddy test", "details": "for Plant response rating, Barnyardgrass: Flood (flooded paddy test), 13 to 15 days; for Barnyardgrass plant response rating: Flood, 31 g ai/ha, scale 0 to 100 (0 no effect, 100 complete control)", "outline": "as §1"}, "[3]": {"test_system": "umbrella sedge (Cyperus difformis)", "test": "Test B flooded paddy test", "details": "for Plant response rating, Sedge, Umbrella: Flood (flooded paddy test), 13 to 15 days; for Sedge, Umbrella plant response rating: Flood, 31 g ai/ha, scale 0 to 100 (0 no effect, 100 complete control)", "outline": "as §1"}, "[4]": {"test_system": "velvetleaf (Abutilon theophrasti)", "test": "Test A pre-/postemergence plant response", "details": "for Velvetleaf plant response rating: visual injury, 0 to 100 scale (0 no effect, 100 complete control), approx. ten days", "outline": "(§2)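 Each species was treated preemergence via directed soil spray and postemergence at the one- to two-leaf stage, with compounds formulated in a non-phytotoxic solvent plus surfactant. Visual injury relative to untreated controls was rated after about ten days on a 0–100 scale.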"}, "[5]": {"test_system": "pigweed (Amaranthus retroflexus)", "test": "Test A pre-/postemergence plant response", "details": "for Pigweed plant response rating: visual injury, 0 to 100 scale (0 no effect, 100 complete control), approx. ten days", "outline": "as §2"}, "corn (Zea mays)": {"test_system": "corn (Zea mays)", "test": "Test A pre-/postemergence plant response", "details": "for Corn plant response rating: visual injury, 0 to 100 scale (0 no effect, 100 complete control), approx. ten days", "outline": "as §2"}, "[6]": {"test_system": "giant foxtail (Setaria faberii)", "test": "Test A pre-/postemergence plant response", "details": "for Foxtail, Giant plant response rating: visual injury, 0 to 100 scale (0 no effect, 100 complete control), approx. ten days", "outline": "as §2"}, "[7]": {"test_system": "large crabgrass (Digitaria sanguinalis)", "test": "Test A pre-/postemergence plant response", "details": "for Crabgrass, Large plant response rating: visual injury, 0 to 100 scale (0 no effect, 100 complete control), approx. ten days", "outline": "as §2"}, "[8]": {"test_system": "barnyardgrass (Echinochloa crus-galli)", "test": "Test A pre-/postemergence plant response", "details": "for Barnyardgrass plant response rating: visual injury, 0 to 100 scale (0 no effect, 100 complete control), approx. ten days", "outline": "as §2"}, "[9]": {"test_system": "wheat (Triticum aestivum)", "test": "Test A pre-/postemergence plant response", "details": "for Wheat plant response rating: visual injury, 0 to 100 scale (0 no effect, 100 complete control), approx. ten days", "outline": "as §2"}, "[10]": {"test_system": "morningglory (Ipomoea spp.)", "test": "Test A pre-/postemergence plant response", "outline": "as §2"}, "[11]": {"details": "250 g ai/ha, flooded paddy test, visual rating on 0 to 100 scale (0 no effect, 100 complete control) after 13 to 15 days"}, "[12]": {"details": "62 g ai/ha, scale of 0 to 100 where 0 is no effect and 100 is complete control"}, "[13]": {"details": "125 g ai/ha, scale 0 to 100, 0 is no effect, 100 is complete control"}, "[14]": {"details": "Postemergence, 125 g ai/ha, 0 to 100 scale where 0 is no effect and 100 is complete control"}, "[15]": {"details": "Preemergence, 125 g ai/ha, 0 to 100 scale, 0 = no effect, 100 = complete control"}, "[16]": {"details": "Preemergence, 500 g ai/ha, 0 to 100 scale, 0 = no effect, 100 = complete control"}}, "data": [{"smiles": "O=C1CCCC(O)=C1C(=O)c1cnc(-c2cc(F)cc(F)c2)n(-c2ccccc2)c1=O", "note": "[Compound 161]", "values": [{"measurement": "Plant response rating, Flood, Rice", "setting": "rice (Oryza sativa); [11]", "result": 50}, {"measurement": "Plant response rating, Rice", "setting": "rice (Oryza sativa); [12]", "result": 50}, {"measurement": "Plant response rating, Rice", "setting": "rice (Oryza sativa); [13]", "result": 45}, {"measurement": "Rice plant response rating", "setting": "rice (Oryza sativa)", "result": 25}, {"measurement": "Plant response rating, Flood, Ducksalad", "setting": "[1]; [11]", "result": 80}, {"measurement": "Plant response rating, Ducksalad", "setting": "[1]; [12]", "result": 0}, {"measurement": "Plant response rating, Ducksalad", "setting": "[1]; [13]", "result": 0}, {"measurement": "Ducksalad plant response rating", "setting": "[1]", "result": 0}, {"measurement": "Plant response rating, Flood, Barnyardgrass", "setting": "[2]; [11]", "result": 30}, {"measurement": "Plant response rating, Barnyardgrass", "setting": "[2]; [12]", "result": 0}, {"measurement": "Plant response rating, Barnyardgrass", "setting": "[2]; [13]", "result": 0}, {"measurement": "Barnyardgrass plant response rating", "setting": "[2]", "result": 0}, {"measurement": "Plant response rating, Flood, Sedge, Umbrella", "setting": "[3]; [11]", "result": 60}, {"measurement": "Plant response rating, Sedge, Umbrella", "setting": "[3]; [12]", "result": 0}, {"measurement": "Plant response rating, Sedge, Umbrella", "setting": "[3]; [13]", "result": 0}, {"measurement": "Sedge, Umbrella plant response rating", "setting": "[3]", "result": 0}, {"measurement": "Plant response rating, Velvetleaf", "setting": "[4]; [14]", "result": 100}, {"measurement": "Velvetleaf plant response rating", "setting": "[4]; Postemergence, 500 g ai/ha", "result": 100}, {"measurement": "Plant response rating, Velvetleaf", "setting": "[4]; [15]", "result": 70}, {"measurement": "Plant response rating, Velvetleaf", "setting": "[4]; [16]", "result": 90}, {"measurement": "Plant response rating, Pigweed", "setting": "[5]; [14]", "result": 80}, {"measurement": "Pigweed plant response rating", "setting": "[5]; Postemergence, 500 g ai/ha", "result": 100}, {"measurement": "Plant response rating, Pigweed", "setting": "[5]; [15]", "result": 90}, {"measurement": "Plant response rating, Pigweed", "setting": "[5]; [16]", "result": 100}, {"measurement": "Plant response rating, Corn", "setting": "corn (Zea mays); [14]", "result": 0}, {"measurement": "Corn plant response rating", "setting": "corn (Zea mays); Postemergence, 500 g ai/ha", "result": 10}, {"measurement": "Plant response rating, Corn", "setting": "corn (Zea mays); [15]", "result": 0}, {"measurement": "Plant response rating, Corn", "setting": "corn (Zea mays); [16]", "result": 0}, {"measurement": "Plant response rating, Foxtail, Giant", "setting": "[6]; [14]", "result": 40}, {"measurement": "Foxtail, Giant plant response rating", "setting": "[6]; Postemergence, 500 g ai/ha", "result": 90}, {"measurement": "Plant response rating, Foxtail, Giant", "setting": "[6]; [15]", "result": 50}, {"measurement": "Plant response rating, Foxtail, Giant", "setting": "[6]; [16]", "result": 80}, {"measurement": "Plant response rating, Crabgrass, Large", "setting": "[7]; [14]", "result": 60}, {"measurement": "Crabgrass, Large plant response rating", "setting": "[7]; Postemergence, 500 g ai/ha", "result": 90}, {"measurement": "Plant response rating, Crabgrass, Large", "setting": "[7]; [15]", "result": 50}, {"measurement": "Plant response rating, Crabgrass, Large", "setting": "[7]; [16]", "result": 90}, {"measurement": "Plant response rating, Barnyardgrass", "setting": "[8]; [14]", "result": 30}, {"measurement": "Barnyardgrass plant response rating", "setting": "[8]; Postemergence, 500 g ai/ha", "result": 90}, {"measurement": "Plant response rating, Barnyardgrass", "setting": "[8]; [15]", "result": 10}, {"measurement": "Plant response rating, Barnyardgrass", "setting": "[8]; [16]", "result": 90}, {"measurement": "Plant response rating, Wheat", "setting": "[9]; [14]", "result": 0}, {"measurement": "Wheat plant response rating", "setting": "[9]; Postemergence, 500 g ai/ha", "result": 0}, {"measurement": "Plant response rating, Wheat", "setting": "[9]; [15]", "result": 0}, {"measurement": "Plant response rating, Wheat", "setting": "[9]; [16]", "result": 0}, {"measurement": "Plant response rating, Morningglory", "setting": "[10]; [14]", "result": 60}, {"measurement": "Morningglory plant response rating", "setting": "[10]; Postemergence, 500 g ai/ha, visual injury, 0 to 100 scale (0 no effect, 100 complete control), approx. ten days", "result": 100}, {"measurement": "Plant response rating, Morningglory", "setting": "[10]; [15]", "result": 0}, {"measurement": "Plant response rating, Morningglory", "setting": "[10]; [16]", "result": 40}]}, {"smiles": "Cc1cc(F)ccc1-n1c(-c2cccc(Br)c2)ncc(C(=O)C2=C(O)CCCC2=O)c1=O", "note": "[Compound 166]", "values": [{"measurement": "Plant response rating, Rice", "setting": "rice (Oryza sativa); [13]", "result": 0}, {"measurement": "Rice plant response rating", "setting": "rice (Oryza sativa)", "result": 0}, {"measurement": "Plant response rating, Ducksalad", "setting": "[1]; [13]", "result": 60}, {"measurement": "Ducksalad plant response rating", "setting": "[1]", "result": 0}, {"measurement": "Plant response rating, Barnyardgrass", "setting": "[2]; [13]", "result": 20}, {"measurement": "Barnyardgrass plant response rating", "setting": "[2]", "result": 0}, {"measurement": "Plant response rating, Sedge, Umbrella", "setting": "[3]; [13]", "result": 70}, {"measurement": "Sedge, Umbrella plant response rating", "setting": "[3]", "result": 50}, {"measurement": "Plant response rating, Velvetleaf", "setting": "[4]; [14]", "result": 100}, {"measurement": "Velvetleaf plant response rating", "setting": "[4]; Postemergence, 500 g ai/ha", "result": 100}, {"measurement": "Plant response rating, Velvetleaf", "setting": "[4]; [15]", "result": 40}, {"measurement": "Plant response rating, Velvetleaf", "setting": "[4]; [16]", "result": 100}, {"measurement": "Plant response rating, Pigweed", "setting": "[5]; [14]", "result": 70}, {"measurement": "Pigweed plant response rating", "setting": "[5]; Postemergence, 500 g ai/ha", "result": 100}, {"measurement": "Plant response rating, Pigweed", "setting": "[5]; [15]", "result": 0}, {"measurement": "Plant response rating, Pigweed", "setting": "[5]; [16]", "result": 40}, {"measurement": "Plant response rating, Corn", "setting": "corn (Zea mays); [14]", "result": 30}, {"measurement": "Corn plant response rating", "setting": "corn (Zea mays); Postemergence, 500 g ai/ha", "result": 40}, {"measurement": "Plant response rating, Corn", "setting": "corn (Zea mays); [15]", "result": 0}, {"measurement": "Plant response rating, Corn", "setting": "corn (Zea mays); [16]", "result": 0}, {"measurement": "Plant response rating, Foxtail, Giant", "setting": "[6]; [14]", "result": 60}, {"measurement": "Foxtail, Giant plant response rating", "setting": "[6]; Postemergence, 500 g ai/ha", "result": 90}, {"measurement": "Plant response rating, Foxtail, Giant", "setting": "[6]; [15]", "result": 0}, {"measurement": "Plant response rating, Foxtail, Giant", "setting": "[6]; [16]", "result": 20}, {"measurement": "Plant response rating, Crabgrass, Large", "setting": "[7]; [14]", "result": 40}, {"measurement": "Crabgrass, Large plant response rating", "setting": "[7]; Postemergence, 500 g ai/ha", "result": 90}, {"measurement": "Plant response rating, Crabgrass, Large", "setting": "[7]; [15]", "result": 10}, {"measurement": "Plant response rating, Crabgrass, Large", "setting": "[7]; [16]", "result": 70}, {"measurement": "Plant response rating, Barnyardgrass", "setting": "[8]; [14]", "result": 80}, {"measurement": "Barnyardgrass plant response rating", "setting": "[8]; Postemergence, 500 g ai/ha", "result": 100}, {"measurement": "Plant response rating, Barnyardgrass", "setting": "[8]; [15]", "result": 0}, {"measurement": "Plant response rating, Barnyardgrass", "setting": "[8]; [16]", "result": 20}, {"measurement": "Plant response rating, Wheat", "setting": "[9]; [14]", "result": 0}, {"measurement": "Wheat plant response rating", "setting": "[9]; Postemergence, 500 g ai/ha", "result": 0}, {"measurement": "Plant response rating, Wheat", "setting": "[9]; [15]", "result": 0}, {"measurement": "Plant response rating, Wheat", "setting": "[9]; [16]", "result": 0}, {"measurement": "Plant response rating, Morningglory", "setting": "[10]; [14]", "result": 100}, {"measurement": "Plant response rating, Morningglory", "setting": "[10]; [15]", "result": 0}, {"measurement": "Plant response rating, Morningglory", "setting": "[10]; [16]", "result": 0}]}]}
